Key:
Assay type in all cases: in vivo
SETVI = assay: Post-emergence herbicidal action; conditions: 320 g/ha, assessed after about 3 weeks
Method: (§1) Seeds of monocotyledonous and dicotyledonous weed and crop plants are laid out in sandy loam soil in wood-fiber pots, covered with soil and cultivated in a greenhouse under good growth conditions. 2 to 3 weeks after sowing, the test plants are treated at the one-leaf stage. The compounds of the invention, formulated in the form of wettable powders (WP) or as emulsion concentrates (EC), are then sprayed onto the green parts of the plants in the form of an aqueous suspension or emulsion at a water application rate equating to 600 to 800 l/ha, with addition of 0.2% wetting agent. After the test plants have been left to stand in the greenhouse under optimal growth conditions for about 3 weeks, the action of the preparations is assessed visually in comparison to untreated controls (herbicidal action in percent (%): 100% activity=the plants have died, 0% activity=like control plants). […] At the same time, inventive compounds leave Gramineae crops such as barley, wheat, rye, millet/sorghum, corn or rice virtually undamaged when applied post-emergence, even at high active ingredient dosages. In addition, some substances are also harmless to dicotyledonous crops such as soya, cotton, oilseed rape, sugar beet or potatoes. Some of the compounds according to the invention have high selectivity and are therefore suitable for controlling unwanted vegetation in agricultural crops by the post-emergence method. The tables below illustrate, in an exemplary manner, the post-emergence herbicidal action of the compounds according to the invention, the herbicidal activity being stated in percent.

ABUTH = assay: Post-emergence herbicidal action; conditions: 320 g/ha, assessed after about 3 weeks
Method: as §1

STEME = assay: Post-emergence herbicidal action; conditions: Table 6, post-emergence (PO), 320 g/ha, assessed after about 3 weeks
Method: as §1

AMARE [1] = assay: Post-emergence herbicidal action; conditions: 320 g/ha, assessed after about 3 weeks
Method: as §1

ECHCG [2] = assay: Pre-emergence herbicidal action; conditions: Table 4, pre-emergence (PE), 320 g/ha, scored after 3 weeks
From the text: (§2) Seeds of monocotyledonous and dicotyledonous weed plants and crop plants are laid out in sandy loam soil in wood-fiber pots and covered with soil. The compounds of the invention, formulated in the form of wettable powders (WP) or as emulsion concentrates (EC), are then applied to the surface of the covering soil in the form of an aqueous suspension or emulsion at a water application rate equating to 600 to 800 I/ha, with addition of 0.2% wetting agent. After the treatment, the pots are placed in a greenhouse and kept under good growth conditions for the trial plants. The damage to the test plants is scored visually after a test period of 3 weeks by comparison with untreated controls (herbicidal activity in percent (%): 100% activity=the plants have died, 0% activity=like control plants).
(§3) At the same time, inventive compounds leave Gramineae crops such as barley, wheat, rye, millet/sorghum, corn or rice virtually undamaged when applied pre-emergence, even at high active ingredient dosages. In addition, some substances are also harmless to dicotyledonous crops such as soya, cotton, oilseed rape, sugar beet or potatoes. […] The tables below illustrate, in an exemplary manner, the pre-emergence herbicidal action of the compounds according to the invention, the herbicidal activity being stated in percent.

AMARE [3] = assay: Pre-emergence herbicidal action; conditions: Table 4, pre-emergence (PE), 320 g/ha, scored after 3 weeks
From the text: as §2, §3

ECHCG [4] = assay: Post-emergence herbicidal action; conditions: 320 g/ha, assessed after about 3 weeks
Method: as §1

SMILES	Herbicidal action against SETVI (SETVI; Table 6, post-emergence (PO)) [%]	Herbicidal action against ABUTH (ABUTH; Table 6, post-emergence (PO)) [%]	Herbicidal action against STEME (STEME) [%]	Herbicidal action against AMARE (AMARE [1]; Table 6, post-emergence (PO)) [%]	Herbicidal action against ECHCG (ECHCG [2]) [%]	Herbicidal action against AMARE (AMARE [3]) [%]	other results
Nc1c(F)c(-c2ccc3ncsc3c2)nc(C(=O)OCc2ccc(Cl)cc2)c1Cl [Example I-64]	90	90	40	90			
Nc1cc(-c2ccc3occc3c2)nc(C(=O)OCc2cccc(Cl)c2)c1Cl [Example I-38]	90	100	100	100			
Nc1cc(-c2ccc3ccsc3c2)nc(C(=O)OCc2ccc(F)c(F)c2F)c1Cl [Example I-46]					60	100	Herbicidal action against ABUTH (ABUTH; Table 9, post-emergence (PO)): 90%; Herbicidal action against AMARE (AMARE [1]; Table 9, post-emergence (PO)): 100%
Nc1cc(-c2ccc3ccoc3c2F)nc(C(=O)OCc2cccc(Cl)c2)c1Cl [Example I-33]	80	90	90	100	20	90	
Nc1cc(-c2ccc3ccoc3c2F)nc(C(=O)OCc2ccc(Cl)cc2)c1Cl [Example I-49]	80	90	90	100			
COc1c(F)ccc(COC(=O)c2nc(-c3ccc4ccoc4c3)cc(N)c2Cl)c1F [Example I-28]	100	100	100	100	90	100	
Nc1c(F)c(-c2ccc3occc3c2)nc(C(=O)OCc2ccc(F)cc2F)c1Cl [Example I-48]	30	90	80	90	10	90	
Nc1c(F)c(-c2cc3ccoc3cc2F)nc(C(=O)OCc2ccc(Cl)cc2)c1Cl [Example I-68]							Herbicidal action against ABUTH (ABUTH; Table 9, post-emergence (PO)): 80%; Herbicidal action against AMARE (AMARE [1]; Table 9, post-emergence (PO)): 80%
Nc1c(F)c(-c2cc3ccsc3cc2F)nc(C(=O)OCc2ccc(Cl)cc2)c1Cl [Example I-58]							Herbicidal action against ABUTH (ABUTH; Table 9, post-emergence (PO)): 90%; Herbicidal action against AMARE (AMARE [1]; Table 9, post-emergence (PO)): 100%
Nc1c(F)c(-c2ccc3ccoc3c2)nc(C(=O)OCc2ccc(Cl)cc2Cl)c1Cl [Example I-51]					20	70	Herbicidal action against ABUTH (ABUTH; Table 9, post-emergence (PO)): 80%; Herbicidal action against AMARE (AMARE [1]; Table 9, post-emergence (PO)): 90%
Nc1cc(-c2ccc3ccsc3c2)nc(C(=O)OCc2ccccc2Cl)c1Cl [Example I-44]	60	100	100	100	60	90	
Nc1cc(-c2ccc3occc3c2)nc(C(=O)OCc2ccc(F)cc2F)c1Cl [Example I-24]	80	100	80	100	60	90	
Nc1c(F)c(-c2ccc3sccc3c2)nc(C(=O)OCc2c(F)cc(F)cc2F)c1Cl [Example I-59]	80	90	90	90	30	80	
Nc1c(F)c(-c2ccc3sccc3c2)nc(C(=O)OCc2ccc(F)cc2F)c1Cl [Example I-56]	80	80	90	90	30	80	
Nc1cc(-c2ccc3ncsc3c2)nc(C(=O)OCc2cccc(Cl)c2)c1Cl [Example I-60]							Herbicidal action against SETVI (SETVI; Table 7, post-emergence (PO)): 80%; Herbicidal action against SETVI (SETVI; Table 8, post-emergence (PO)): 80%; Herbicidal action against ABUTH (ABUTH; Table 7, post-emergence (PO)): 90%; Herbicidal action against ABUTH (ABUTH; Table 8, post-emergence (PO)): 90%; Herbicidal action against ECHCG (ECHCG [4]; Table 7, post-emergence (PO)): 90%; Herbicidal action against ECHCG (ECHCG [4]; Table 8, post-emergence (PO)): 90%; Herbicidal action against AMARE (AMARE [1]; Table 7, post-emergence (PO)): 80%; Herbicidal action against AMARE (AMARE [1]; Table 8, post-emergence (PO)): 80%
Nc1c(F)c(-c2cc3ccoc3cc2F)nc(C(=O)OCc2ccc(F)cc2)c1Cl [Example I-71]							Herbicidal action against ABUTH (ABUTH; Table 9, post-emergence (PO)): 40%; Herbicidal action against AMARE (AMARE [1]; Table 9, post-emergence (PO)): 80%
Nc1cc(-c2ccc3ccoc3c2)nc(C(=O)OCc2ccc(F)c(F)c2F)c1Cl [Example I-23]	90	90	100	100	90	100	
Nc1cc(-c2ccc3ncsc3c2)nc(C(=O)OCc2ccc(F)cc2F)c1Cl [Example I-39]	100	100	70	90			
Nc1c(F)c(-c2ccc3ccsc3c2)nc(C(=O)OCc2ccc(Cl)cc2)c1Cl [Example I-45]	30	90	90	90	40	100	
Nc1cc(-c2ccc3occc3c2)nc(C(=O)OCc2ccccc2[N+](=O)[O-])c1Cl [Example I-62]							Herbicidal action against ABUTH (ABUTH; Table 9, post-emergence (PO)): 100%; Herbicidal action against AMARE (AMARE [1]; Table 9, post-emergence (PO)): 40%
Nc1cc(-c2ccc3ccoc3c2)nc(C(=O)OCc2ccc(F)cc2F)c1Cl [Example I-43]					0	100	Herbicidal action against SETVI (SETVI; Table 7, post-emergence (PO)): 90%; Herbicidal action against SETVI (SETVI; Table 8, post-emergence (PO)): 90%; Herbicidal action against ABUTH (ABUTH; Table 7, post-emergence (PO)): 90%; Herbicidal action against ABUTH (ABUTH; Table 8, post-emergence (PO)): 90%; Herbicidal action against ECHCG (ECHCG [4]; Table 7, post-emergence (PO)): 80%; Herbicidal action against ECHCG (ECHCG [4]; Table 8, post-emergence (PO)): 80%; Herbicidal action against AMARE (AMARE [1]; Table 7, post-emergence (PO)): 100%; Herbicidal action against AMARE (AMARE [1]; Table 8, post-emergence (PO)): 100%
COc1c(Cl)ccc(Cl)c1COC(=O)c1nc(-c2ccc3occc3c2)cc(N)c1Cl [Example I-57]	80	90	70	100			
Nc1cc(-c2ccc3ccoc3c2)nc(C(=O)OCc2cc(F)c(F)cc2F)c1Cl [Example I-27]	80	90	100	100	60	100	
Nc1cc(-c2ccc3occc3c2)nc(C(=O)OCc2ccccc2C(F)(F)F)c1Cl [Example I-37]	90	100	100	100	90	100	
Nc1c(F)c(-c2ccc3occc3c2)nc(C(=O)OCc2ccc(Cl)cc2Cl)c1Cl [Example I-63]							Herbicidal action against ABUTH (ABUTH; Table 9, post-emergence (PO)): 80%; Herbicidal action against AMARE (AMARE [1]; Table 9, post-emergence (PO)): 80%
Nc1cc(-c2ccc3ncsc3c2)nc(C(=O)OCc2ccc(Cl)cc2)c1Cl [Example I-69]							Herbicidal action against SETVI (SETVI; Table 7, post-emergence (PO)): 80%; Herbicidal action against SETVI (SETVI; Table 8, post-emergence (PO)): 80%; Herbicidal action against ABUTH (ABUTH; Table 7, post-emergence (PO)): 90%; Herbicidal action against ABUTH (ABUTH; Table 8, post-emergence (PO)): 90%; Herbicidal action against ECHCG (ECHCG [4]; Table 7, post-emergence (PO)): 90%; Herbicidal action against ECHCG (ECHCG [4]; Table 8, post-emergence (PO)): 90%; Herbicidal action against AMARE (AMARE [1]; Table 7, post-emergence (PO)): 100%; Herbicidal action against AMARE (AMARE [1]; Table 8, post-emergence (PO)): 100%
Nc1cc(-c2ccc3ccoc3c2)nc(C(=O)OCc2ccc(F)cc2)c1Cl [Example I-26]	100	100	100	100	70	100	
